Laboratory results published in patent US20090048198A1, “COMPOSITIONS AND METHODS FOR NUCLEIC ACID DELIVERY SYSTEMS” (Northwestern University, priority 2007, published 2009).
Values joined by “and” are separate entries in the source; they are usually repeats but may differ in a detail not shown here. Equal values may be shown once.

Columns and labels:
[1] = tested on: Human umbilical artery endothelial cells (HUAECs); experiment: Transfection of HUAECs with lipoplexes, β-galactosidase reporter assay; type: cell-based; settings: HUAEC cells in vitro; CMV-β-galactosidase plasmid; β-galactosidase activity 24 h after transfection
Description: Human umbilical artery endothelial cells (HUAECs) were obtained from Cambrex (Walkersville, Md.) were and maintained in EGM-2 MV containing 5% fetal bovine serum (FBS) (Cambrex) at 37° C. with 5% CO2. At confluence, the cells were passaged using 0.25 mg/ml Trypsin/EDTA (Cambrex) and were used at passages 5-10 for these experiments. It is noted that human endothelial cells, and particularly HUAECs, are known in the art to be difficult to transfect (see, Teifel, et al., Endothelium, New York, 5, 21-35 (1997); Krotz et al., J. Vasc. Res., 40:425-434 (2003); and Tanner et al., Cardiovascular Research, 35:522-528 (1997)) all of which are herein incorporated by reference. For example, it has been reported that the level of transfection for a reporter gene in human umbilical vein endothelial cells is less than 1% of that of HeLa cells (Edgell et al., BioTechniques, 25:264-272 (1998), herein incorporated by reference).
The cells were seeded in 96-well plates at 24 h before transfection at densities appropriate to give about 80% confluence at the time of transfection. CMV-β-galactosidase plasmid was purchased from Clontech Laboratories Inc. (Palo Alto, Calif.) and propagated and purified by Bayou Biolabs (Harahan, La.). […]

[2] = DSC of hydrated cationic lipid dispersions and binary phase diagrams; type: physicochemical; settings: for melting transition Tm (solid-liquid crystalline): hydrated dispersions, DSC heating 30° C./h
Description: (§1) Chloroform solutions of cationic lipids were mixed in glass vials at the desired ratios, solvent was removed with a N2 stream and, subsequently, high vacuum. The lipid mixtures were hydrated in PBS (50 mM phosphate buffer, 100 mM NaCl, pH 7.2) overnight at room temperature and vortex-mixed for several minutes; then they were subjected to several cycles of freezing and thawing. Samples were subsequently equilibrated overnight at room temperature before measurement.
DSC measurements were performed using a VP-DSC Microcalorimeter (MicroCal Inc., Northampton, Mass.) at 30° C./h. Thermograms were analyzed using OriginLab (Northampton, Mass.) software. The onset and the completion temperatures of the phase transitions needed for the construction of the phase diagram were determined by the intersections of the peak slopes with the baseline on the thermograms. The maximums of the heat capacity curves were taken as the phase transition temperatures of the pure components. For asymmetric or split line shapes of the composite aggregates, the transition temperature was defined as that temperature at which the area of the endotherm was divided into equal halves.

[3] = Synchrotron small-angle X-ray diffraction (SAXD) on heating; type: physicochemical; settings: SAXD heating scans 20-90° C.
Description: as §1
Measurements were performed at Argonne National Laboratory, Advanced Photon Source, DND-CAT (beamline 5-IDD) and BioCAT (beamline 18-ID), using 12 keV X-rays, as previously described [1 R. Koynova, R. C. MacDonald, Mixtures of Cationic Lipid O-Ethylphosphatidylcholine With Membrane Lipids and DNA: Phase Diagrams, Biophys. J. 85 (2003) 2449-2465]. The lipid concentration of the dispersions was 20 wt %. Samples were filled into glass capillaries (Charles Supper Co., Natick, Mass.) and flame-sealed. A Linkam thermal stage (Linkam Sci Instruments, Surrey, England) provided temperature control. Linear heating and cooling scans were performed at rates of 1-5° C./min. Exposure times were typically 0.5 sec. Data were collected using a MAR-CCD detector. Sample-to-detector distance was 1.8-2 m. […] Products of lipid degradation were not detected in these samples, and radiation damage of the lipids was not evident from their X-ray patterns.

temperature of solid-liquid crystalline (lamellar) transition on heating [3]	SMILES	transfection activity [1]	phase at physiological temperature (37° C.) according to phase diagram [2]	melting transition Tm (solid-liquid crystalline) [2] [°C]
–	CCCCCCCCCCCCCCCC(=O)OC[C@H](COP(=O)(OCC)OCC[N+](C)(C)C)OC(=O)CCCCCCCCCCCCCCC (some centres unmarked) [EDPPC]	still transfects DNA into cells	solid phase	42
–	CCCCCCCCCCCCCC(=O)OC[C@H](COP(=O)(OCC)OCC[N+](C)(C)C)OC(=O)CCCCCCCCCCCCC (some centres unmarked) [EDMPC]	better transfection agents than EDPPC	liquid crystalline phase	24
25 °C and ~26 °C	CCCCCCCCCCCCCC[N+](C)(C)CCCCCCCCCCCCCC.[Br-] [diC14DAB, Ditetradecyldimethylammonium-bromide]	–	–	26
47 °C	CCCCCCCCCCCCCCCCCC[N+](C)(C)CCCCCCCCCCCCCCCCCC.[Br-] [diC18DAB, dioctadecyldimethylammonium-bromide]	–	solid phase	~50
